# Measured values as given in patent publication US10799467B2, “Use of the phytocannabinoid cannabidivarin (CBDV) in the treatment of epilepsy” (GW Pharma Limited, priority 2010, dated 2020).
# Where two headings read alike, the source gives them in different places. Marks after values point to notes of the source that are not given here.
# How the values were obtained:
# [1] = cited from earlier work
# PTZ-induced seizures [2] = test: CBDV with standard anti-epileptic drugs in the PTZ model of generalised seizures; assay type: in vivo, Wistar rats; details: valproate (varying doses) co-administered with CBDV 200 mg/kg
# Description: As described in Example 2 above. Varying doses of the SAED's ethosuximide and valproate were tested in combination to isolated CBDV at a dose of 200 mg/kg.
# [3] = system: pilocarpine-induced seizures; test: CBDV with standard anti-epileptic drugs in the pilocarpine model of epilepsy; assay type: in vivo; details: CBDV 200 mg/kg with valproate at various doses
# From the text: These two drugs are representative of two classes of anti-convulsants which have different mechanisms of action.
# MES-induced seizure = test: Maximal electroshock seizure (MES) model of epilepsy; assay type: in vivo, Mouse/ICR
# Description: The vehicle used in this study was 2:1:17 (ethanol:Cremophor:0.9% ^w/v, NaCl). The test compounds used were cannabidiol (CBD) and cannabidivarin (CBDV). These were made to a solution at the highest concentration; these were then dissolved in ethanol before combination with Cremophor and 0.9% NaCl in the proportion described above. The CBD or CBDV were administered intraperitoneally at a volume of 10 ml/kg body weight. The SAED valproic acid (VBA) was dissolved in saline.
# Animal Species/Strain: Mouse/ICR, Microbiological grade: SPF, Supplier: SLC Japan, Inc. […] Temperature: 23±2° C., Humidity: 60±10%, Light conditions: 7 AM to 7 PM for the light period, 7 PM to 7 AM for the dark period. Chow and water: Free access to CRF-1 (Oriental Yeast Co, Ltd) and tap water.
# One day before each experiment, mice were weighed and randomized into several groups in each test. On the morning of the experiment day, body weight was measured in order to calculate the administration volume of each animal. Vehicle, CBD, CBDV or valproic acid sodium salt was interperitoneally administered 30 minutes before electric stimuli. Maximal electroshock seizures (MES) in mice was induced by a stimulator (UGO BASILE ECT UNIT 7801, Italia) using a current of 30 mA delivered with a pulse frequency of 100 Hz for 200 msec through earlap electrodes.
# All statistical analyses were performed using SAS Software for Windows, Release 9.1 (SAS Institute Japan). The difference of the number (hindlimb extension or deaths) in each group was assessed using two-tailed Fisher's exact test.
# seizures = details: THC administered to 5 institutionalized children not responding to phenobarbital and phenytoin; cited from earlier work
# PTZ-induced seizures [4] = test: PTZ model of generalised seizures (80 mg/kg PTZ); assay type: in vivo, Wistar rats; details: for Median severity: vehicle 4.25; for % no seizure: vehicle 12.5; for mortality rate: vehicle 44%, not significant
# Description: Male Wistar rats (P24-29; 75-110 g) were used to assess the effects of the phytocannabinoid CBDV in the PTZ model of generalised seizures. Animals were habituated to the test environment, cages, injection protocol and handling prior to experimentation. Animals were housed in a room at 21° C. on a 12 hour light: dark cycle (lights on 0900) in 50% humidity, with free access to food and water.
# Five 6 L Perspex tanks with lids were placed on a single bench with dividers between them. Closed-circuit television (CCTV) cameras were mounted onto the dividers to observe rat behaviour. Sony Topica CCD cameras (Bluecherry, USA) were linked via BNC cables to a low-noise PC via Brooktree digital capture cards (Bluecherry, USA). Zoneminder (http://www.zoneminder.com) software was used to monitor rats, start and end recordings and manage video files. In-house Linux scripts were used to encode video files into a suitable format for further offline analysis using The Observer (Noldus Technologies).
# A range of doses of PTZ (50-100 mg/kg body weight) were used to determine the best dose for induction of seizures (see below). As a result, a dose of 80 mg/kg injected intra-peritoneally (IP; stock solution 50 mg/ml in 0.9% saline) were used to screen the CBDV.
# On the day of testing, pure CBDV was administered via intra-peritoneal (i.p.) injection at doses of 50, 100 and 200 mg/kg alongside animals that were injected with a matched volume of the cannabinoid vehicle (2:1:17 ethanol:Cremophor: 0.9% w/v NaCl solution), which served as the negative control group. Animals were then observed for 1 hour, after which time they received an IP injection of 80 mg/kg PTZ. Negative vehicle controls were performed in parallel with cannabinoid-dosed subjects. After receiving a dose of PTZ, animals were observed and videoed to determine the severity of seizure and latency to several seizure behaviour types (see in vivo analysis, below). Animals were filmed for half an hour after last sign of seizure, and then returned to their cage.
# Animals were observed during experimental procedures, but all analysis was performed offline on recorded video files using The Observer behavioural analysis software (Noldus, Netherlands). A seizure severity scoring system was used to determine the levels of seizure experienced by subjects (Pohl & Mares, 1987). All signs of seizure were detailed for all animals.
# The latency (in seconds) from injection of PTZ to first myoclonic jerk (FMJ; score of 1), and to the animal attaining “forelimb clonus with tonic component and body twist” (score of 3.5) were recorded. FMJ is an indicator of the onset of seizure activity, whilst >90% of animals developed scores of 3.5, and so is a good marker of the development of more severe seizures. Data are presented as the mean±S.E.M. within an experimental group.
# This is given as the median value for each experimental group based on the scoring scale below.
# The percentage of animals within an experimental group that died as a result of PTZ-induced seizures. Note that the majority of animals that developed tonic-clonic seizures (scores of 4 and 5) died as a result, and that a score of 6 (death) automatically denotes that the animal also experienced tonic-clonic seizures.
# This is given as the mean±S.E.M. for each experimental group.
# For measures of latency and severity, one way analysis of variance (ANOVA) was performed on the four groups together (vehicle and 50, 100 and 200 mg/kg CBDV) to detect overall effects of CBDV (p≤0.05 considered significant).
# Significant ANOVA results were followed by post hoc tests to test differences between vehicle and drug groups (Tukey's test, p≤0.05 considered significant).
# Methodology as described in Example 2.
# General methodology is as described in Example 2.
# Three doses of THCV BDS were assessed against a concentration of PTZ known to induce moderate seizures in rats (70 mg/kg; see pilot, above). […]
# grand mal seizures = details: 200-300 mg of cannabidiol plus regular medication; Cunha et al (1980); cited from earlier work
# seizure frequency [5] = details: 200-300 mg of cannabidiol per day in addition to standard antiepileptic drugs; 12 patients; cited from earlier work
# seizure frequency [6] = details: 900-1200 mg of cannabidiol a day for 10 months; single patient; cited from earlier work
# CB1 receptor = CB1 receptor (Homo sapiens, UniProt P21554); details: cited from earlier work
# CB2 receptor = CB2 receptor (Homo sapiens, UniProt P34972); details: WO 2007/138322; cited from earlier work
# [7] = rats; WO 2007/138322; cited from earlier work
# [8] = rats at doses greater than 200 mg/kg
# CB1 receptor, sequence (P21554 whole entry): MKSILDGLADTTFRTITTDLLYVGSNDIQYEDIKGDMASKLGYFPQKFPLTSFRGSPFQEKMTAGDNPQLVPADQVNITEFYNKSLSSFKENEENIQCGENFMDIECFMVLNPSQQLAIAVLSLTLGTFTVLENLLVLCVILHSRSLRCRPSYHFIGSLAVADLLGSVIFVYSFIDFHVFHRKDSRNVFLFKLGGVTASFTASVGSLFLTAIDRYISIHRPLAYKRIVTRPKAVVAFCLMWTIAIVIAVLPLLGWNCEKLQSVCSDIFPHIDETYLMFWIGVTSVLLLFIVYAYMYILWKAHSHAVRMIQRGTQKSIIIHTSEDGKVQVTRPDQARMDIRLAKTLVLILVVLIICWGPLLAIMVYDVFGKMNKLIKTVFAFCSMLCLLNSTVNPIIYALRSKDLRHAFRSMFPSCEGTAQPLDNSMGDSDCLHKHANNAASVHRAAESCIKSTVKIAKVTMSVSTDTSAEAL
# CB2 receptor, sequence (P34972 whole entry): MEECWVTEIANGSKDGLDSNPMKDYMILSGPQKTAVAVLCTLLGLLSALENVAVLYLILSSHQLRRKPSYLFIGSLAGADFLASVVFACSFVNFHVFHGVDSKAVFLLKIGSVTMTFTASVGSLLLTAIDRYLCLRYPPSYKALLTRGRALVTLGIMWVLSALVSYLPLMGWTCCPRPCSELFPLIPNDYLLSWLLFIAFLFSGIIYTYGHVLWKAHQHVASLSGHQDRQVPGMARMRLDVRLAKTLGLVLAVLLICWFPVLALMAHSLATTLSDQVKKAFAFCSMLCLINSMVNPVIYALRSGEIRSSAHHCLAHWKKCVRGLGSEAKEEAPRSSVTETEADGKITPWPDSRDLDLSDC
smiles,measurement,setting,value
CCC1(C)CC(=O)NC1=O (stereo not drawn) [ethosuximide],motor and other side effects,[1]; [8],notable motor and other side effects (including sedation)
"CCCC(CCC)C(=O)O [Valproic acid, valproic acid, reference compound]",mortality (independent effect when co-administered),PTZ-induced seizures [2],significant decreases
same,onset latency (independent effect when co-administered),PTZ-induced seizures [2],significant decreases
same,seizure severity (independent effect when co-administered),PTZ-induced seizures [2],significant decreases
same,mortality (independent effect),[3],only CBDV and not valproate independently caused a significant decrease
same,seizure severity (independent effect),[3],independent and positive effects
same,Incidence of Tonic convulsion,"MES-induced seizure; 200 mg/kg i.p., Table 10.2, 10 mice per group, vehicle 9/10",5/10
same,Incidence of Tonic convulsion,"MES-induced seizure; 350 mg/kg i.p., Table 10.1, 5 mice per group, vehicle 5/5",0/5**
same,Incidence of Tonic convulsion,"MES-induced seizure; 350 mg/kg i.p., Table 10.2, 10 mice per group, vehicle 9/10",1/10**
same,hindlimb extension vs vehicle group,"MES-induced seizure; 350 mg/kg valproic acid, statistically significant",blocked
same,motor and other side effects,[1]; [8],notable motor and other side effects (including sedation)
"CCCCCc1cc(O)c2c(c1)OC(C)(C)[C@@H]1CCC(C)=C[C@@H]21 [THC, tetrahydrocannabinol]",seizure outcome in 5 children,seizures,"One became entirely free of seizures, one became almost completely free of seizures, and the other three did no worse than before"
CCC1(c2ccccc2)C(=O)NC(=O)NC1=O [phenobarbital],motor and other side effects,[1]; rat models of epilepsy at doses greater than 250 mg/kg,notable motor and other side effects (including sedation)
"C=C(C)[C@@H]1CCC(C)=C[C@H]1c1c(O)cc(CCCCC)cc1O [CBD, cannabidiol]",animals that died,"PTZ-induced seizures [4]; 100 mg/kg CBD IP 60 minutes before 80 mg/kg PTZ, vehicle 46.7%, p<0.001",6.7%
same,animals that experienced the most severe seizures (score of 5),"PTZ-induced seizures [4]; 100 mg/kg CBD IP, 80 mg/kg PTZ, vehicle 53.3%, p<0.001",6.7%
same,latency of seizure development,"PTZ-induced seizures [4]; CBD 1, 10 and 100 mg/kg IP, 80 mg/kg PTZ",no significant increases
same,Incidence of Tonic convulsion,"MES-induced seizure; 3 mg/kg i.p., Table 10.1, 5 mice per group, vehicle 5/5",3/5
same,Incidence of Tonic convulsion,"MES-induced seizure; 10 mg/kg i.p., Table 10.1, 5 mice per group, vehicle 5/5",4/5
same,Incidence of Tonic convulsion,"MES-induced seizure; 30 mg/kg i.p., Table 10.1, 5 mice per group, vehicle 5/5",3/5
same,Incidence of Tonic convulsion,"MES-induced seizure; 100 mg/kg i.p., Table 10.1, 5 mice per group, vehicle 5/5",4/5
same,inhibition of the expression of hindlimb extension with statistical significance,MES-induced seizure; CBD 3-100 mg·kg IP,not able to inhibit
same,patients who remained unchanged,grand mal seizures,1
same,patients who showed complete improvement,grand mal seizures,3
same,patients who showed minor improvement,grand mal seizures,2
same,patients who showed partial improvement,grand mal seizures,2
same,unwanted effect,grand mal seizures,mild sedation
same,improvement in seizure frequency,seizure frequency [5],no significant improvement
same,seizure frequency,seizure frequency [6],markedly reduced
same,activity at the CB1 receptor,CB1 receptor,inverse agonists
same,activity at the CB2 receptor,CB2 receptor,inverse agonists
same,bodyweight,[7],reduced
"CCCc1cc(O)c2c(c1)OC(C)(C)[C@@H]1CCC(C)=C[C@@H]21 [THCV, tetrahydrocannabivarin]",Median severity,"PTZ-induced seizures [4]; 0.025 mg/kg THCV, 80 mg/kg PTZ",3.5
same,% no seizure,"PTZ-induced seizures [4]; 0.025 mg/kg THCV, 80 mg/kg PTZ",5.9%
same,Median severity,"PTZ-induced seizures [4]; 0.25 mg/kg THCV, 80 mg/kg PTZ",3.5
same,% no seizure,"PTZ-induced seizures [4]; 0.25 mg/kg THCV, 80 mg/kg PTZ",33.3%
same,Median severity,"PTZ-induced seizures [4]; 2.5 mg/kg THCV, 80 mg/kg PTZ",3.5
same,% no seizure,"PTZ-induced seizures [4]; 2.5 mg/kg THCV, 80 mg/kg PTZ",18.8%
same,mortality rate,"PTZ-induced seizures [4]; high (2.5 mg/kg) pure THCV, 80 mg/kg PTZ",38%
same,latency to score of [5] vs vehicle,"PTZ-induced seizures [4]; highest dose of THCV (2.5 mg/kg), 80 mg/kg PTZ, p=0.013","increased latencies, reaching a significant level"
same,latency to score of [3] vs vehicle,"PTZ-induced seizures [4]; highest dose of THCV (2.5 mg/kg), 80 mg/kg PTZ, p=0.017","increased latencies, reaching a significant level"
same,latency to first manifestation of seizure-like behaviour vs vehicle,"PTZ-induced seizures [4]; highest dose of THCV (2.5 mg/kg), 80 mg/kg PTZ, p=0.02",delay of onset was significant
same,mortality rate,"PTZ-induced seizures [4]; low (0.025 mg/kg) pure THCV, 80 mg/kg PTZ",41%
same,mortality rate,"PTZ-induced seizures [4]; medium (0.25 mg/kg) pure THCV, 80 mg/kg PTZ",33%
same,duration of PTZ-induced seizures in animals that survived vs vehicle,"PTZ-induced seizures [4]; medium dose of THCV (0.25 mg/kg), 80 mg/kg PTZ, p=0.03",significantly shorter
same,activity at the CB1 receptor,CB1 receptor,antagonist
